Measurements: patent US20220380319A1 (Bial - R&D Investments, S.A., priority 2019, published 2022)
Values after ≈ are worked out from the molar mass of the structure shown.

What was measured:
[1] = target: T1, acid ceramidase (Homo sapiens, UniProt Q13510); assay: Acid ceramidase inhibition, biochemical fluorescent assay with cell lysates overexpressing acid ceramidase, substrate Rbm14-12; conditions: substrate Rbm14-12 6.3 μM, pH 4.5, 1 hr preincubation at RT
T1 construct: Cell lysates overexpressing acid ceramidase were used as the enzyme source; expressed in transfected cells
T1 sequence (Q13510 22-395): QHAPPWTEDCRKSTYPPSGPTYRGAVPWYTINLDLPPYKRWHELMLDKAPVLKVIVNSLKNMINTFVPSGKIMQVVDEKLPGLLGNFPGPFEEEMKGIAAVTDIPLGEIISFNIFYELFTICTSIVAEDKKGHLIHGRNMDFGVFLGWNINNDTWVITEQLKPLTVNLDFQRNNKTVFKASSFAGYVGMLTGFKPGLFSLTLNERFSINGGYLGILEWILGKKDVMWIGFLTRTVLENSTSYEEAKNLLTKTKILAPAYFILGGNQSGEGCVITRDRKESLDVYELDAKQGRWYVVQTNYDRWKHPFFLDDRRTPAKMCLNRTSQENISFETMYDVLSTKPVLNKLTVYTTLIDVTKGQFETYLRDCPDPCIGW
Outline: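 Lysate of cells overexpressing acid ceramidase (10 μg protein) preincubated with compound dose series 1 hr at RT in 25 mM NaAC, 100 mM NaCl, pH 4.5, then reacted 1 hr with 6.3 μM Rbm14-12. Stopped with NaIO4/glycine buffer pH 10.6, fluorescence ex360/em446; IC50 by four-parameter fit.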

[2] = Compound solubility in water

| Compound | IC50 [1] | solubility [2] |
| --- | --- | --- |
| Cn1c(=O)n(C(=O)NCCc2ccccc2)c2cccnc21 [Example 87, 3-Methyl-2-oxo-N-phenethyl-2,3-dihydro-1H-imidazo[4,5-b]pyridine-1-carboxamide] | > 1000 nM | 14.7 µg/mL (≈ 49.6 µM) |
| Cn1c(=O)n(C(=O)NCCc2ccccc2)c2ncccc21 [Example 88, 1-Methyl-2-oxo-N-phenethyl-1,2-dihydro-3H-imidazo[4,5-b]pyridine-3-carboxamide] | < 200 nM | 26.4 µg/mL (≈ 89.1 µM) |
| CC(C)Oc1cccc2c1ncn2C(=O)NCCc1ccccc1 [Example 90, 4-iso-Propoxy-N-phenethyl-1H-benzo[d]imidazole-1-carboxamide] | < 200 nM | 0.3 µg/mL (≈ 0.928 µM) |
| CCOc1nc2ncccc2n1C(=O)NCCCc1ccccc1 [Example 91a, 2-Ethoxy-N-(3-phenylpropyl)-1H-imidazo[4,5-b]pyridine-1-carboxamide] | < 200 nM | 7 µg/mL (≈ 21.6 µM) |
| CCOc1nc2cccnc2n1C(=O)NCCCc1ccccc1 [Example 91b, 2-ethoxy-N-(3-phenylpropyl)-3H-imidazo[4,5-b]pyridine-3-carboxamide] | < 200 nM | 21.1 µg/mL (≈ 65 µM) |
| CCOc1nc2c(F)cccc2n1C(=O)NCCc1ccccc1 [Example 92, 2-Ethoxy-4-fluoro-N-phenethyl-1H-benzo[d]imidazole-1-carboxamide] | < 200 nM | 1.2 µg/mL (≈ 3.67 µM) |
| CCOc1nc2c(Cl)cccc2n1C(=O)NCCc1ccccc1 [Example 93, 4-Chloro-2-ethoxy-N-phenethyl-1H-benzo[d]imidazole-1-carboxamide] | < 200 nM | 0.05 µg/mL (≈ 0.145 µM) |
| COc1cccc2c1ncn2C(=O)NCCC(C)C [Example 98, N-iso-Pentyl-4-methoxy-1H-benzo[d]imidazole-1-carboxamide] | < 200 nM | 16 µg/mL (≈ 61.2 µM) |
| CCCCNC(=O)n1cnc2ccc(N3CCC(N4CCOCC4)CC3)cc21 [Example 101a, N-Butyl-6-(4-morpholinopiperidin-1-yl)-1H-benzo[d]imidazole-1-carboxamide] | < 200 nM | 26.7 µg/mL (≈ 69.3 µM) |
| CCCCNC(=O)n1cnc2cc(N3CCC(N4CCOCC4)CC3)ccc21 [Example 101b, N-butyl-5-(4-morpholinopiperidin-1-yl)-1H-benzo[d]imidazole-1-carboxamide] | < 200 nM | 7.5 µg/mL (≈ 19.5 µM) |
| CCCCNC(=O)n1cnc2ccc(N3CCC(N4CCN(C)CC4)CC3)cc21 [Example 102a, N-Butyl-6-(4-(4-methylpiperazin-1-yl)piperidin-1-yl)-1H-benzo[d]imidazole-1-carboxamide] | < 200 nM | 34.8 µg/mL (≈ 87.3 µM) |
| CCCCNC(=O)n1cnc2cc(N3CCC(N4CCN(C)CC4)CC3)ccc21 [Example 102b, N-butyl-5-(4-(4-methylpiperazin-1-yl)piperidin-1-yl)-1H-benzo[d]imidazole-1-carboxamide] | 200 to 1000 nM | 36.1 µg/mL (≈ 90.6 µM) |

Now from value to compound:

| IC50 [1] | solubility [2] | Compound |
| --- | --- | --- |
| < 200 nM | 27.6 µg/mL (≈ 78.3 µM) | CN(C)CCOc1nc2ccccc2n1C(=O)NCCc1ccccc1 [Example 89, 2-(2-(Dimethylamino)ethoxy)-N-phenethyl-1H-benzo[d]imidazole-1-carboxamide] |
| 200 to 1000 nM | 11.2 µg/mL (≈ 38.4 µM) | CCCCNC(=O)n1c(OCC)nc2c(OC)cccc21 [Example 94, N-Butyl-2-ethoxy-4-methoxy-1H-benzo[d]imidazole-1-carboxamide] |
| > 1000 nM | 10.3 µg/mL (≈ 37.4 µM) | CCCCNC(=O)n1c(OC(C)C)nc2ccccc21 [Example 96, N-Butyl-2-isopropoxy-1H-benzo[d]imidazole-1-carboxamide] |
| 200 to 1000 nM | 10.9 µg/mL (≈ 41.7 µM) | CCCCNC(=O)n1c(OCC)nc2ccccc21 [Example 97, N-Butyl-2-ethoxy-1H-benzo[d]imidazole-1-carboxamide] |
| 200 to 1000 nM | 18 µg/mL (≈ 58.9 µM) | CCCCNC(=O)n1c(OC(C)C)nc2c(OC)cccc21 [Example 97a] |
| 200 to 1000 nM | 28 µg/mL (≈ 101 µM) | CCCCNC(=O)n1c(OC)nc2c(OC)cccc21 [Example 100, N-Butyl-2,4-dimethoxy-1H-benzo[d]imidazole-1-carboxamide] |
